The target of the experiment is IKZF2 (Homo sapiens (Human), UniProt Q96SW2+Q9UKS7). As to the kind of experiment: IKZF2 HiBiT Assay (Jurkat-IKZF2-HiBiT cell line). The format is cell-based. The settings on record: Jurkat-IKZF2-HiBiT cells, 24 hours; for DC50: read-out: HiBit assay degradation analysis DC50; for Dmax: read-out: HiBit assay degradation analysis Dmax. An outline of the steps: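 IKZF2 degradation was assessed as HiBiT luminescence in Jurkat-IKZF2-HiBiT cells, using lytic detection after 24 h of compound treatment at 37 °C, 5% CO2.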
(The HiBiT peptide binds its large partner to form an active luciferase.)

Data on 17 compounds can be found in US20250215012A1, “IKZF2 DEGRADERS AND USES THEREOF” (REGENTS OF THE UNIVERSITY OF MICHIGAN, priority 2022, published 2025).

IKZF2, sequence (Q9UKS7 whole entry): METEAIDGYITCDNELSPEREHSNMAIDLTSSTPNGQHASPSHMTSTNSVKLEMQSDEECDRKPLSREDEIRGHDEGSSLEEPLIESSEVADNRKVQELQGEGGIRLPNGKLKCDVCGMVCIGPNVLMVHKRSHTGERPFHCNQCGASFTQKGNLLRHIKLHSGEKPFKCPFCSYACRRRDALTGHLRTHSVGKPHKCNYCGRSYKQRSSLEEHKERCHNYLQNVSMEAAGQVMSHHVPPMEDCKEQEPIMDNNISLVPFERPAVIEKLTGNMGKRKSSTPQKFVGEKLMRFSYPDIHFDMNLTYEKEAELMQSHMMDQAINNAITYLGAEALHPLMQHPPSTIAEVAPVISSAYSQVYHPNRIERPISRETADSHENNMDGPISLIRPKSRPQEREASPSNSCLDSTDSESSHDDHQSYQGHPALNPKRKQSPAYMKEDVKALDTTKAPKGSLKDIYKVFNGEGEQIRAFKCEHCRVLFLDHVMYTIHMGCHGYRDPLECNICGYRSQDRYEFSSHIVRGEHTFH
IKZF2, sequence (Q96SW2 whole entry): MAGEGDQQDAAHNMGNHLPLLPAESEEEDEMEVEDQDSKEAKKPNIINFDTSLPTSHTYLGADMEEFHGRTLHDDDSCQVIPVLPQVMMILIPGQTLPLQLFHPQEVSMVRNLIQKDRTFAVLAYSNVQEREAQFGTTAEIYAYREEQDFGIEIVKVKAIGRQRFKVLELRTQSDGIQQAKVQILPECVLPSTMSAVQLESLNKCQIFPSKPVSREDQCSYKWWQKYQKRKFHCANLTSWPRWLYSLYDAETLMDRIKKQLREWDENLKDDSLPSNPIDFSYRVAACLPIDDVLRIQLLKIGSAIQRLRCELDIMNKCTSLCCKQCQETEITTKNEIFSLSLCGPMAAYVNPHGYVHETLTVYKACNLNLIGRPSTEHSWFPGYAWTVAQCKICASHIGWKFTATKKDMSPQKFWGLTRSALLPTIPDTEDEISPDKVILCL
IKZF2, sequence (Q16531 whole entry partner): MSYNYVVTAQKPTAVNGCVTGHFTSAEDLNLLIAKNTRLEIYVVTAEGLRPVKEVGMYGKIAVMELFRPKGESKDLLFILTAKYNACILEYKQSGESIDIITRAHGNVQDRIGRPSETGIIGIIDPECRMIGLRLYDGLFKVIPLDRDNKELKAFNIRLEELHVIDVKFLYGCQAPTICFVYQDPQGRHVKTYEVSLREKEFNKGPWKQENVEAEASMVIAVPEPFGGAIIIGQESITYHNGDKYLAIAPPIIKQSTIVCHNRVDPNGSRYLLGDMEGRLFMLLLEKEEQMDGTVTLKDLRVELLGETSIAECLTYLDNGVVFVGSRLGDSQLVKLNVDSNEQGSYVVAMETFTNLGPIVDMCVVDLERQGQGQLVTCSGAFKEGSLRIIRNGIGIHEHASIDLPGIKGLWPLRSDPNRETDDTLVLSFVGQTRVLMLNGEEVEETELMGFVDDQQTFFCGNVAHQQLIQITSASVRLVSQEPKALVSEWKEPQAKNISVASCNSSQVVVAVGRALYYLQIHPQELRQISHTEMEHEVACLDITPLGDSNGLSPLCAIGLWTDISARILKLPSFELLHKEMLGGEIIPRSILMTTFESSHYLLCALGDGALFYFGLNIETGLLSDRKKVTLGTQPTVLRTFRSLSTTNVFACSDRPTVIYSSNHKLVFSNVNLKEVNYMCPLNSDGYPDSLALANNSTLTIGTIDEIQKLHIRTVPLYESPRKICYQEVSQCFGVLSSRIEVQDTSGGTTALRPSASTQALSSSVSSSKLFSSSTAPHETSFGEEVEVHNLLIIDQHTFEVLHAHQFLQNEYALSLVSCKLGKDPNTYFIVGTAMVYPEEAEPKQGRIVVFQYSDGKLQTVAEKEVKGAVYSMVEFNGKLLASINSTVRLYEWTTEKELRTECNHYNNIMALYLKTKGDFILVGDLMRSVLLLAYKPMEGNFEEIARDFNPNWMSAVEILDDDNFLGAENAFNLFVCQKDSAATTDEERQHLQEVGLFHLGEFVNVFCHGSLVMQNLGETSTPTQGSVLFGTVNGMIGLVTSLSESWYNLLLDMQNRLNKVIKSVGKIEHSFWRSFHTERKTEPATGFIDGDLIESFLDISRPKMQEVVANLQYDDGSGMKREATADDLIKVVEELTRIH

On to `O=C1CCC(N2Cc3c(ccc4c3OCC43CCN(Cc4cnn(Cc5cccc(F)c5)c4)CC3)C2=O)C(=O)N1` (stereo not shown) [Compound A238, 3-(1′-((1-(3-fluorobenzyl)-1H-pyrazol-4-yl)methyl)-6-oxo-6,8-dihydro-2H,7H-spiro[furo[2,3-e]isoindole-3,4′-piperidin]-7-yl)piperidine-2,6-dione], for which the DC50 (usually the midpoint of the concentration-degradation curve) is less than 50 nM and the Dmax (in general, the greatest extent of degradation seen) lay within 60 to 80%.
The corresponding values for `O=C1CCC(N2Cc3c(ccc4c3OCC43CCN(Cc4cccc5c4OCO5)CC3)C2=O)C(=O)N1` (stereo not shown) [Compound A225, 3-(1′-(benzo[d][1,3]dioxol-4-ylmethyl)-6-oxo-6,8-dihydro-2H,7H-spiro[furo[2,3-e]isoindole-3,4′-piperidin]-7-yl)piperidine-2,6-dione] are greater than 500 nM and 40 to 60%.
The matching figures for `O=C1CCC(N2Cc3c(ccc4c3OCC43CCN(Cc4cnn(Cc5ccc(F)cc5)c4)CC3)C2=O)C(=O)N1` (stereo not shown) [Compound A237, 3-(1′-((1-(4-fluorobenzyl)-1H-pyrazol-4-yl)methyl)-6-oxo-6,8-dihydro-2H,7H-spiro[furo[2,3-e]isoindole-3,4′-piperidin]-7-yl)piperidine-2,6-dione]: 50 to 200 nM and 60 to 80%.
The corresponding values for `O=C1CCC(N2Cc3c(ccc4c3OCC43CCN(Cc4cccc(-c5cnn(C6CCOCC6)c5)c4)CC3)C2=O)C(=O)N1` (stereo not shown) [Compound A147, 3-(6-oxo-1′-(3-(1-(tetrahydro-2H-pyran-4-yl)-1H-pyrazol-4-yl)benzyl)-6,8-dihydro-2H,7H-spiro[furo[2,3-e]isoindole-3,4′-piperidin]-7-yl)piperidine-2,6-dione] are less than 50 nM and 60 to 80%.
For `O=C1CCC(N2Cc3c(ccc4c3OCC43CCN(Cc4cccn5nccc45)CC3)C2=O)C(=O)N1` (stereo not shown) [Compound A58, 3-(6-oxo-1′-(pyrazolo[1,5-a]pyridin-4-ylmethyl)-6,8-dihydro-2H,7H-spiro[furo[2,3-e]isoindole-3,4′-piperidin]-7-yl)piperidine-2,6-dione], the DC50 is greater than 500 nM and the Dmax lay within 40 to 60%.
Take `Cn1cc2c(CN3CCC4(CC3)COc3c4ccc4c3CN(C3CCC(=O)NC3=O)C4=O)cccc2n1` (stereo not shown) [Compound A67, 3-(1′-((2-methyl-2H-indazol-4-yl)methyl)-6-oxo-6,8-dihydro-2H,7H-spiro[furo[2,3-e]isoindole-3,4′-piperidin]-7-yl)piperidine-2,6-dione]: the DC50 lay in the range of 50 to 200 nM and the Dmax is 60 to 80%.
The matching figures for `O=C1CC[C@H](N2Cc3c(ccc4c3OCC43CCN(Cc4cccc(-c5cnn([C@H]6CCOC6)c5)c4)CC3)C2=O)C(=O)N1` [Compound A269, (S)-3-(6-oxo-1′-(3-(1-((S)-tetrahydrofuran-3-yl)-1H-pyrazol-4-yl)benzyl)-6,8-dihydro-2H,7H-spiro[furo[2,3-e]isoindole-3,4′-piperidin]-7-yl)piperidine-2,6-dione]: 50 to 200 nM and 60 to 80%.
As to `O=C1CCC(N2Cc3c(ccc4c3OCC43CCN(Cc4cnc(-c5ccccc5)s4)CC3)C2=O)C(=O)N1` (stereo not shown) [Compound A81, 3-(6-oxo-1′-((2-phenylthiazol-5-yl)methyl)-6,8-dihydro-2H,7H-spiro[furo[2,3-e]isoindole-3,4′-piperidin]-7-yl)piperidine-2,6-dione], the DC50 was greater than 500 nM and the greatest degradation seen (Dmax) was less than 40%.
The matching figures for `O=C1CC[C@H](N2Cc3c(ccc4c3OCC43CCN(Cc4cnn(-c5ccc(C(F)(F)F)cc5)c4)CC3)C2=O)C(=O)N1` [Compound A360, (S)-3-(6-oxo-1′-((1-(4-(trifluoromethyl)phenyl)-1H-pyrazol-4-yl)methyl)-6,8-dihydro-2H,7H-spiro[furo[2,3-e]isoindole-3,4′-piperidin]-7-yl)piperidine-2,6-dione]: less than 50 nM and 60 to 80%.
The corresponding values for `O=C1CCC(N2Cc3c(ccc4c3OCC43CCN(Cc4ccc(OCc5ccccc5)cn4)CC3)C2=O)C(=O)N1` (stereo not shown) [Compound A338, 3-(1′-((5-(benzyloxy)pyridin-2-yl)methyl)-6-oxo-6,8-dihydro-2H,7H-spiro[furo[2,3-e]isoindole-3,4′-piperidin]-7-yl)piperidine-2,6-dione] are greater than 500 nM and less than 40%.
The corresponding values for `CC(C)(O)Cn1cc(-c2cccc(CN3CCC4(CC3)COc3c4ccc4c3CN([C@H]3CCC(=O)NC3=O)C4=O)c2)cn1` [Compound A292, (S)-3-(1′-(3-(1-(2-hydroxy-2-methylpropyl)-1H-pyrazol-4-yl)benzyl)-6-oxo-6,8-dihydro-2H,7H-spiro[furo[2,3-e]isoindole-3,4′-piperidin]-7-yl)piperidine-2,6-dione] are less than 50 nM and 60 to 80%.
On to `O=C1CCC(N2Cc3c(ccc4c3OCC43CCN(Cc4ccc(F)cc4Cl)CC3)C2=O)C(=O)N1` (stereo not shown) [Compound A6, 3-(1′-(2-chloro-4-fluorobenzyl)-6-oxo-6,8-dihydro-2H,7H-spiro[furo[2,3-e]isoindoline-3,4′-piperidin]-7-yl)piperidine-2,6-dione], for which the DC50 is greater than 500 nM and the Dmax was less than 40%.
`CCOc1cc(CN2CCC3(CC2)COc2c3ccc3c2CN(C2CCC(=O)NC2=O)C3=O)ccn1` (stereo not shown) [Compound A247, 3-(1′-((2-ethoxypyridin-4-yl)methyl)-6-oxo-6,8-dihydro-2H,7H-spiro[furo[2,3-e]isoindole-3,4′-piperidin]-7-yl)piperidine-2,6-dione]: the DC50 is greater than 500 nM and the Dmax is less than 40%.
The matching figures for `O=C1CCC(N2Cc3c(ccc4c3OCC43CCN(Cc4cccc(-n5ccnc5)c4)CC3)C2=O)C(=O)N1` (stereo not shown) [Compound A108, 3-(1′-(3-(1H-imidazol-1-yl)benzyl)-6-oxo-6,8-dihydro-2H,7H-spiro[furo[2,3-e]isoindole-3,4′-piperidin]-7-yl)piperidine-2,6-dione]: greater than 500 nM and 40 to 60%.
The corresponding values for `[2H]C([2H])([2H])n1ncc2ccc(CN3CCC4(CC3)COc3c4ccc4c3CN([C@H]3CCC(=O)NC3=O)C4=O)cc21` [Compound A300, (S)-3-(1′-((1-(methyl-d3)-1H-indazol-6-yl)methyl)-6-oxo-6,8-dihydro-2H,7H-spiro[furo[2,3-e]isoindole-3,4′-piperidin]-7-yl)piperidine-2,6-dione] are less than 50 nM and 60 to 80%.
The matching figures for `O=C1CC[C@H](N2Cc3c(ccc4c3OCC43CCN(Cc4ccn(-c5ccc(Cl)cc5)n4)CC3)C2=O)C(=O)N1` [Compound A315, (S)-3-(1′-((1-(4-chlorophenyl)-1H-pyrazol-3-yl)methyl)-6-oxo-6,8-dihydro-2H,7H-spiro[furo[2,3-e]isoindole-3,4′-piperidin]-7-yl)piperidine-2,6-dione]: 50 to 200 nM and 40 to 60%.
Consider `CC(C)c1cccc(CN2CCC3(CC2)COc2c3ccc3c2CN(C2CCC(=O)NC2=O)C3=O)c1` (stereo not shown) [Compound A203, 3-(1′-(3-isopropylbenzyl)-6-oxo-6,8-dihydro-2H,7H-spiro[furo[2,3-e]isoindole-3,4′-piperidin]-7-yl)piperidine-2,6-dione], for which the DC50 was greater than 500 nM and the Dmax is less than 40%.
